Data reported in ChEMBL document CHEMBL1153834, “Orally administered combined regimens for treatment of Mycobacterium ulcerans infection in mice” (2007).
In brackets after ≈: the same amount, converted by molar mass. Activity calls are given as the source filed them. No cut-off for these calls is given here.

Assays:
[1] = test system: Mycobacterium ulcerans; experiment: Antimycobacterial activity against Mycobacterium ulcerans isolate CU001; assay type: functional
[2] = test system: Mycobacterium ulcerans; experiment: Antimycobacterial activity against Mycobacterium ulcerans isolate CU001 infected in BALB/c mouse left hind foot-pad assessed as incidence of bacterial infection at 10 mg/kg, po administered for 5 days per week measured after 8 weeks; assay type: functional, organism-based; design: dose 10 mg/kg
[3] = test system: Mycobacterium ulcerans; experiment: Antimycobacterial activity against Mycobacterium ulcerans isolate CU001 infected in BALB/c mouse left hind foot-pad assessed as bacterial load per culture-positive foot-pad at 10 mg/kg, po administered for 5 days per week measured after 4 weeks; assay type: functional
[4] = test system: Mycobacterium ulcerans; experiment: Antimycobacterial activity against Mycobacterium ulcerans isolate CU001 infected in BALB/c mouse left hind foot-pad assessed as bacterial load at 10 mg/kg, po administered for 5 days per week measured after 4 weeks; assay type: functional
[5] = test system: Mycobacterium ulcerans; experiment: Antimycobacterial activity against Mycobacterium ulcerans isolate CU001 infected in BALB/c mouse left hind foot-pad assessed as bacterial load at 10 mg/kg, po administered for 5 days per week measured after 8 weeks; assay type: functional, organism-based; design: dose 10 mg/kg
[6] = test system: Mycobacterium ulcerans; experiment: Antimycobacterial activity against Mycobacterium ulcerans isolate CU001 infected in BALB/c mouse left hind foot-pad assessed as incidence of bacterial infection at 100 mg/kg, po administered for 5 days per week measured after 8 weeks; assay type: functional, organism-based; design: dose 100 mg/kg
[7] = test system: Mycobacterium ulcerans; experiment: Antimycobacterial activity against Mycobacterium ulcerans isolate CU001 infected in BALB/c mouse left hind foot-pad assessed as bacterial load per culture-positive foot-pad at 100 mg/kg, po administered for 5 days per week measured after 4 weeks; assay type: functional
[8] = test system: Mycobacterium ulcerans; experiment: Antimycobacterial activity against Mycobacterium ulcerans isolate CU001 infected in BALB/c mouse left hind foot-pad assessed as bacterial load at 100 mg/kg, po administered for 5 days per week measured after 4 weeks; assay type: functional
[9] = test system: Mycobacterium ulcerans; experiment: Antimycobacterial activity against Mycobacterium ulcerans isolate CU001 infected in BALB/c mouse left hind foot-pad assessed as bacterial load at 100 mg/kg, po administered for 5 days per week measured after 8 weeks; assay type: functional
[10] = test system: Mycobacterium ulcerans; experiment: Antimycobacterial activity against Mycobacterium ulcerans isolate CU001 infected in BALB/c mouse left hind foot-pad assessed as bacterial load per culture-positive foot-pad at 10 mg/kg, po administered for 5 days per week measured after 8 weeks; assay type: functional

CN[C@@H]1[C@H](O[C@H]2[C@H](O[C@H]3[C@H](O)[C@@H](O)[C@H](N=C(N)N)[C@@H](O)[C@@H]3N=C(N)N)O[C@@H](C)[C@]2(O)C=O)O[C@@H](CO)[C@H](O)[C@H]1O [STREPTOMYCIN]
MIC [1]: 0.5 µg/mL (≈ 0.86 µM)

CO[C@H]1/C=C/O[C@@]2(C)Oc3c(C)c(O)c4c(O)c(c(/C=N/N5CCN(C)CC5)c(O)c4c3C2=O)NC(=O)/C(C)=C\C=C\[C@H](C)[C@H](O)[C@@H](C)[C@@H](O)[C@@H](C)[C@H](OC(C)=O)[C@@H]1C [RIFAMPIN]
Activity [2]: Active | log10cfu [3]: 1.52 | log10cfu [4]: 0.46 | Activity [5]: Active | MIC [1]: 2 µg/mL (≈ 2.43 µM)

CC[C@H]1OC(=O)[C@H](C)[C@@H](O[C@H]2C[C@@](C)(OC)[C@@H](O)[C@H](C)O2)[C@H](C)[C@@H](O[C@@H]2O[C@H](C)C[C@H](N(C)C)[C@H]2O)[C@](C)(OC)C[C@@H](C)C(=O)[C@H](C)[C@@H](O)[C@]1(C)O [CLARITHROMYCIN]
Activity [6]: Active | log10cfu [7]: 3.43 | log10cfu [8]: 2.53 | log10cfu [9]: 1.25 | MIC [1]: 0.5 µg/mL (≈ 0.668 µM)

COc1c(N2C[C@@H]3CCCN[C@@H]3C2)c(F)cc2c(=O)c(C(=O)O)cn(C3CC3)c12 [MOXIFLOXACIN]
log10cfu [7]: 3.23 | log10cfu [8]: 2.99 | log10cfu [9]: 1.25 | MIC [1]: 0.25 µg/mL (≈ 0.623 µM) | log10cfu [10]: 1.72
